# Description: During dose escalation, patients received YY-20394 tablets q.d. at dosages of 20, 40, 80, 140 or 200 mg. The maximum tolerated dose (MTD), dose escalation phase and dose-limiting toxicity (DLT) as well as hematological toxicity classifications are described in Additional file 4. The primary endpoints were safety, tolerability and the MTD of YY-20394. Secondary endpoints were PK parameters and efficacy. Response criteria followed the revised International Research Working Group (IRWG) for non-Hodgkin lymphomas (NHL), and the International Working Group on Chronic Lymphocytic Leukemia (IWCLL) criteria for CLL [8]. Efficacy determinations were the objective response rate (ORR), disease control rate (DCR), complete remission (CR), partial remission (PR), stable disease (SD), progressive disease (PD) and progression-free survival (PFS).
# The safety evaluation of YY-20394 included adverse events (AEs) and serious AEs (SAEs) by standard categorizations.
# The maximum tolerated dose (MTD) was established during the dose escalation phase, based on dose-limiting toxicity (DLT) developments, which were defined as: death; grade IV hematological toxicity with a duration of 1 week; or non-hematological toxicities ≥ grade III. […] At the end of the tolerance test, the dose extension test was conducted, in which YY-20394 was administered for a period of 28 days per cycle until the disease progressed or toxicity developed beyond tolerance. Patients visited the clinic once a week during treatment cycle 1 and every 2 weeks during cycle 2 and once a month thereafter.
# [1] = drug-related AE, n (%) of 25 evaluable patients
smiles,measurement,setting,value
"COc1ncc(-c2nc(N3CCOCC3)nc3c(CN4CCC(C(C)(C)O)CC4)cc(F)cc23)cc1NS(C)(=O)=O [YY-20394, N-[5-[6-fluoro-8-[[4-(1-hydroxy-1-methylethyl)-1-piperidinyl]methyl]-2-(4-morpholinyl)-4-quinazolinyl]-2-methoxy-3-pyridinyl]-methanesulfonamide]",maximum tolerated dose (MTD),20–200 mg daily,not reached
same,"Upper respiratory tract infection, number of patients with grade I/II at > 5% incidence",[1],4 (16.0)
same,"Upper respiratory tract infection, number of patients with ≥ grade III",[1],1 (4.0)
same,"Anemia, number of patients with grade I/II at > 5% incidence","human, in vivo",3 (12.0)
same,"Anemia, number of patients with ≥ grade III","human, in vivo",0
same,"Cough, number of patients with grade I/II at > 5% incidence","human, in vivo",2 (8.0)
same,"Cough, number of patients with ≥ grade III","human, in vivo",0
same,"Diarrhea, number of patients with grade I/II at > 5% incidence","human, in vivo",2 (8.0)
same,"Diarrhea, number of patients with ≥ grade III","human, in vivo",0
same,"Elevated alanine aminotransferase, number of patients with grade I/II at > 5% incidence","human, in vivo",3 (12.0)
same,"Elevated alanine aminotransferase, number of patients with ≥ grade III","human, in vivo",0
same,"Elevated aspartate aminotransferase, number of patients with grade I/II at > 5% incidence","human, in vivo",2 (8.0)
same,"Elevated aspartate aminotransferase, number of patients with ≥ grade III","human, in vivo",0
same,"Elevated bilirubin, number of patients with grade I/II at > 5% incidence","human, in vivo",2 (8.0)
same,"Elevated bilirubin, number of patients with ≥ grade III","human, in vivo",0
same,"Elevated serum alkaline phosphatase, number of patients with grade I/II at > 5% incidence","human, in vivo",3 (12.0)
same,"Elevated serum alkaline phosphatase, number of patients with ≥ grade III","human, in vivo",0
same,"Elevated serum lactate dehydrogenase, number of patients with grade I/II at > 5% incidence","human, in vivo",11 (44.0)
same,"Elevated serum lactate dehydrogenase, number of patients with ≥ grade III","human, in vivo",1 (4.0)
same,"Elevated serum α-hydroxybutyrate dehydrogenase, number of patients with grade I/II at > 5% incidence","human, in vivo",6 (24.0)
same,"Elevated serum α-hydroxybutyrate dehydrogenase, number of patients with ≥ grade III","human, in vivo",1 (4.0)
same,"Elevated γ-glutamyltransferase, number of patients with grade I/II at > 5% incidence","human, in vivo",2 (8.0)
same,"Elevated γ-glutamyltransferase, number of patients with ≥ grade III","human, in vivo",0
same,"Fatigue, number of patients with grade I/II at > 5% incidence","human, in vivo",2 (8.0)
same,"Fatigue, number of patients with ≥ grade III","human, in vivo",0
same,"Fever, number of patients with grade I/II at > 5% incidence","human, in vivo",2 (8.0)
same,"Fever, number of patients with ≥ grade III","human, in vivo",0
same,"Hyperbilirubinemia, number of patients with grade I/II at > 5% incidence","human, in vivo",3 (12.0)
same,"Hyperbilirubinemia, number of patients with ≥ grade III","human, in vivo",0
same,"Hyperuricemia, number of patients with grade I/II at > 5% incidence","human, in vivo",5 (20.0)
same,"Hyperuricemia, number of patients with ≥ grade III","human, in vivo",3 (12.0)
same,"Leukocytosis, number of patients with grade I/II at > 5% incidence","human, in vivo",2 (8.0)
same,"Leukocytosis, number of patients with ≥ grade III","human, in vivo",0
same,"Leukopenia, number of patients with grade I/II at > 5% incidence","human, in vivo",11 (44.0)
same,"Leukopenia, number of patients with ≥ grade III","human, in vivo",2 (8.0)
same,"Lymphocythemia, number of patients with grade I/II at > 5% incidence","human, in vivo",3 (12.0)
same,"Lymphocythemia, number of patients with ≥ grade III","human, in vivo",2 (8.0)
same,"Maculopapule, number of patients with grade I/II at > 5% incidence","human, in vivo",2 (8.0)
same,"Maculopapule, number of patients with ≥ grade III","human, in vivo",0
same,"Neutropenia, number of patients with grade I/II at > 5% incidence","human, in vivo",17 (68.0)
same,"Neutropenia, number of patients with ≥ grade III","human, in vivo",11 (44.0)
same,"Oropharyngeal pain, number of patients with grade I/II at > 5% incidence","human, in vivo",2 (8.0)
same,"Oropharyngeal pain, number of patients with ≥ grade III","human, in vivo",0
same,"Pneumonia, number of patients with grade I/II at > 5% incidence","human, in vivo",4 (16.0)
same,"Pneumonia, number of patients with ≥ grade III","human, in vivo",4 (16.0)
same,"Pneumonitis, number of patients with grade I/II at > 5% incidence","human, in vivo",3 (12.0)
same,"Pneumonitis, number of patients with ≥ grade III","human, in vivo",2 (8.0)
same,"Proteinuria, number of patients with grade I/II at > 5% incidence","human, in vivo",4 (16.0)
same,"Proteinuria, number of patients with ≥ grade III","human, in vivo",0
same,"Thrombocytopenia, number of patients with grade I/II at > 5% incidence","human, in vivo",5 (20.0)
same,"Thrombocytopenia, number of patients with ≥ grade III","human, in vivo",1 (4.0)
same,"Weight gain, number of patients with grade I/II at > 5% incidence","human, in vivo",2 (8.0)
same,"Weight gain, number of patients with ≥ grade III","human, in vivo",1 (4.0)
same,"Weight loss, number of patients with grade I/II at > 5% incidence","human, in vivo",3 (12.0)
same,"Weight loss, number of patients with ≥ grade III","human, in vivo",0
same,dose-limiting toxicity (DLT),"human, in vivo",no patients experienced DLT
same,drug-related AE elevated lactate dehydrogenase,"human, in vivo",44.0%
same,drug-related AE elevated α-hydroxybutyrate dehydrogenase,"human, in vivo",24.0%
same,drug-related AE hyperuricemia,"human, in vivo",20.0%
same,drug-related AE leukopenia,"human, in vivo",44.0%
same,drug-related AE neutropenia,"human, in vivo",68.0%
same,drug-related AE thrombocytopenia,"human, in vivo",20.0%
same,drug-related AE ≥ grade III hyperuricemia,"human, in vivo",12.0%
same,drug-related AE ≥ grade III leukopenia,"human, in vivo",8.0%
same,drug-related AE ≥ grade III lymphocythemia,"human, in vivo",8.0%
same,drug-related AE ≥ grade III neutropenia,"human, in vivo",44.0%
same,drug-related AE ≥ grade III pneumonia,"human, in vivo",16.0%
same,drug-related AE ≥ grade III pneumonitis,"human, in vivo",8.0%
same,grade IV hyperuricemia,"human, in vivo",3 cases
same,grade IV neutropenia,"human, in vivo",4
same,grade V AEs,"human, in vivo",no grade V AEs occurred
same,"incidence of diarrhea, colitis, and hepatotoxicities","human, in vivo",very low
same,number of ≥ grade III AEs,"human, in vivo",32
same,patients who experienced SAEs,"human, in vivo",52.0%
same,patients who experienced drug-related AEs (so in the source),"human, in vivo",36.0%
same,patients with ≥ 1 AE,"human, in vivo",25 patients
